Measurements taken from US8703165B2, “Spiro fused 1-amino-piperdine pyrrolidine dione derivatives with pesticidal activity” (Syngenta Crop Protection, Inc., priority 2009, dated 2014).

melting point: > 200 °C
SMILES: Cc1cc(C)c(C2C(=O)OC3(CCN(N(C)C)CC3)C2=O)c(C)c1 (stereo not shown) [A11, 8-Dimethylamino-3-(2,4,6-trimethyl-phenyl)-1-oxa-8-azaspiro[4.5]decane-2,4-dione]
